These results are taken from US8697683B2, “Azetidinyl diamides as monoacylglycerol lipase inhibitors” (Janssen Pharmaceutica, NV, priority 2009, dated 2014).

In one test the target is T1, MGL (Rattus norvegicus, UniProt Q8R431).
T1 construct: one g rat brain was homogenized
T1 sequence (Q8R431 1-303): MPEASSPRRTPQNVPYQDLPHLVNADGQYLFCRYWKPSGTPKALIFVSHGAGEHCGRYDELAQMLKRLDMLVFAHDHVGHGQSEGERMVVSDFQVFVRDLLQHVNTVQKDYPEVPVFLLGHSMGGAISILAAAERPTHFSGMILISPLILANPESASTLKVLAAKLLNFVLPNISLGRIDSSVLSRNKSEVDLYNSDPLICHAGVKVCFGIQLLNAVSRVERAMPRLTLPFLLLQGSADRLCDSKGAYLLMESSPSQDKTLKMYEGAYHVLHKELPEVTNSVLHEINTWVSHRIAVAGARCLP
Nature of the test: 2-AG Accumulation Assay (rat brain homogenate). It counts as biochemical. To be noted: compound 1 μM, percent of vehicle 2-AG accumulation.
With `O=C(c1ccc2c(ccn2-c2ccc(F)cc2)c1)N1CC(N2CCN(C(=O)c3cscn3)CC2)C1` [Cpd 1358, 1-(4-Fluorophenyl)-5-({3-[4-(1,3-thiazol-4-ylcarbonyl)piperazin-1-yl]azetidin-1-yl}carbonyl)-1H-indole], the “Rat Brain 2AG % VehCntrl (%) @1 μM” value is listed as 1183%.
For `O=C(c1nccs1)N1CCN(C2CN(C(=O)c3sc4cc(C(F)(F)F)ccc4c3Cl)C2)CC1` [Cpd 324, 1-(1-{[3-Chloro-6-(trifluoromethyl)-1-benzothiophen-2-yl]carbonyl}azetidin-3-yl)-4-(1,3-thiazol-2-ylcarbonyl)piperazine], the “Rat Brain 2AG % VehCntrl (%) @1 μM” value is 1215%.
The same measure, in the same setting: under `Cc1c(Cc2ccc(C(F)(F)F)cc2)cccc1C(=O)N1CC(N2CCN(C(=O)c3nccs3)CC2)C1` [Cpd 1008] stands 1125%; under `Cn1cc(-c2cccc(F)c2)c2ccc(C(=O)N3CC(N4CCN(C(=O)c5nccs5)CC4)C3)cc21` [Cpd 1142], 1314%; under `COc1c(C(=O)N2CC(N3CCN(C(=O)c4nccs4)CC3)C2)sc2cc(C(F)(F)F)ccc12` [Cpd 649, 1-(1-{[3-Methoxy-6-(trifluoromethyl)-1-benzothiophen-2-yl]carbonyl}azetidin-3-yl)-4-(1,3-thiazol-2-ylcarbonyl)piperazine], 1017%.
On the same count and under the same terms, under `O=C(c1ccc2c(c1)CCN2Cc1ccccc1)N1CC(N2CCN(C(=O)c3nccs3)CC2)C1` [Cpd 994, 1-Benzyl-5-({3-[4-(1,3-thiazol-2-ylcarbonyl)piperazin-1-yl]azetidin-1-yl}carbonyl)-2,3-dihydro-1H-indole] stands 1014%; under `O=C(c1nccs1)N1CCN(C2CN(C(=O)c3sc4cc(C(F)(F)F)ccc4c3F)C2)CC1` [Cpd 895, 1-(1-{[3-Fluoro-6-(trifluoromethyl)-1-benzothiophen-2-yl]carbonyl}azetidin-3-yl)-4-(1,3-thiazol-2-ylcarbonyl)piperazine], 1207%.
On the same count and under the same terms, under `O=C(c1ccc2c(-c3cccc(C(F)(F)F)c3)c[nH]c2c1)N1CC(N2CCN(C(=O)c3nccs3)CC2)C1` [Cpd 1341, 6-({3-[4-(1,3-Thiazol-2-ylcarbonyl)piperazin-1-yl]azetidin-1-yl}carbonyl)-3-[3-(trifluoromethyl)phenyl]-1H-indole] stands 1149%; under `O=C(c1ccc2c(-c3ccccc3)cccc2c1)N1CC(N2CCN(C(=O)c3nccs3)CC2)C1` [Cpd 338, 1-{1-[(5-Phenylnaphthalen-2-yl)carbonyl]azetidin-3-yl}-4-(1,3-thiazol-2-ylcarbonyl)piperazine], 2111%.
`Cc1c(C(=O)N2CC(N3CCN(C(=O)c4nccs4)CC3)C2)sc2cc(C(F)(F)F)ccc12` [Cpd 899, 1-(1-{[3-Methyl-6-(trifluoromethyl)-1-benzothiophen-2-yl]carbonyl}azetidin-3-yl)-4-(1,3-thiazol-2-ylcarbonyl)piperazine]: the “Rat Brain 2AG % VehCntrl (%) @1 μM” value came out at 1092%.
Same read-out and setting: under `O=C(c1ccc2nc(-c3ccccc3)sc2c1)N1CC(N2CCN(C(=O)c3nccs3)CC2)C1` [Cpd 1125, 2-Phenyl-6-({3-[4-(1,3-thiazol-2-ylcarbonyl)piperazin-1-yl]azetidin-1-yl}carbonyl)-1,3-benzothiazole] stands 1228%; under `O=C(c1ccc2c(ccn2-c2cccc(C(F)(F)F)c2)c1)N1CC(N2CCN(C(=O)c3cscn3)CC2)C1` [Cpd 1408, 5-({3-[4-(1,3-Thiazol-4-ylcarbonyl)piperazin-1-yl]azetidin-1-yl}carbonyl)-1-[3-(trifluoromethyl)phenyl]-1H-indole], 1475%.
Turning to `O=C(c1ccc(OCc2ccc3ccccc3n2)cc1)N1CC(N2CCN(C(=O)c3nccs3)CC2)C1` [Cpd 967], the “Rat Brain 2AG % VehCntrl (%) @1 μM” value turned out to be 1373%.
Same read-out and setting: under `O=C(c1ccc2c(-c3cccc(F)c3)c[nH]c2c1)N1CC(N2CCN(C(=O)c3nccs3)CC2)C1` [Cpd 1319] stands 1276%; under `Cn1cc(Cc2ccc(F)cc2)c2ccc(C(=O)N3CC(N4CCN(C(=O)c5nccs5)CC4)C3)cc21` [Cpd 1026], 1014%; under `O=C(c1nccs1)N1CCN(C2CN(C(=O)c3ccc4c(ccn4-c4ccc(F)cc4)c3F)C2)CC1` [Cpd 1348, 4-Fluoro-1-(4-fluorophenyl)-5-({3-[4-(1,3-thiazol-2-ylcarbonyl)piperazin-1-yl]azetidin-1-yl}carbonyl)-1H-indole], 1428%.
Still for that read-out and setting: under `O=C(c1ccc2c(c1)CCN(Cc1cccc(C(F)(F)F)c1)C2)N1CC(N2CCN(C(=O)c3nccs3)CC2)C1` [Cpd 879] stands 1027%; under `O=C(c1nn(-c2ccc(Cl)cc2Cl)c2c1CCC/C2=C\c1ccc(Cl)cc1)N1CC(N2CCN(C(=O)C(F)(F)F)CC2)C1` [Cpd 1020], 135%; under `O=C(c1nccs1)N1CCN(C2CN(C(=O)c3sc4cc(-c5ccccc5)ccc4c3Cl)C2)CC1` [Cpd 343, 1-{1-[(3-Chloro-6-phenyl-1-benzothiophen-2-yl)carbonyl]azetidin-3-yl}-4-(1,3-thiazol-2-ylcarbonyl)piperazine], 1371%.
Consider `Cc1cn(-c2ccccc2)c2ccc(C(=O)N3CC(N4CCN(C(=O)c5nccs5)CC4)C3)cc12` [Cpd 1054], for which the “Rat Brain 2AG % VehCntrl (%) @1 μM” value was 1008%.
In the case of `O=C(c1ccc(OCc2ccc(Cl)s2)cc1)N1CC(N2CCN(C(=O)c3nccs3)CC2)C1` [Cpd 962], the “Rat Brain 2AG % VehCntrl (%) @1 μM” value was 1213%.
Same read-out and setting: under `O=C(c1ccc(-c2nc(-c3cccc(C(F)(F)F)c3)cs2)cc1)N1CC(N2CCN(C(=O)c3nccs3)CC2)C1` [Cpd 1332] stands 1168%; under `O=C(c1ccc(Cc2cccc(C(F)(F)F)c2)cc1)N1CC(N2CCN(C(=O)c3nccs3)CC2)C1` [Cpd 995], 1080%.
The same measure, in the same setting: under `Cc1nc(-c2cccc(C(F)(F)F)c2)sc1C(=O)N1CC(N2CCN(C(=O)c3nccs3)CC2)C1` [Cpd 1407, 1-[1-({4-Methyl-2-[3-(trifluoromethyl)phenyl]-1,3-thiazol-5-yl}carbonyl)azetidin-3-yl]-4-(1,3-thiazol-2-ylcarbonyl)piperazine] stands 1287%.

The test is the same for the next values; noted with them: compound 10 μM, percent of vehicle 2-AG accumulation.
`O=C(c1ccc(-c2ccc([N+](=O)[O-])cc2)cc1)N1CC(N2CCN(C(=O)c3nccs3)CC2)C1` [Cpd 215, 1-{1-[(4′-Nitrobiphenyl-4-yl)carbonyl]azetidin-3-yl}-4-(1,3-thiazol-2-ylcarbonyl)piperazine]: the “Rat Brain 2AG % VehCntrl (%) @10 μM” value is 1091%.
For `O=C(c1nccs1)N1CCN(C2CN(C(=O)c3sc4cc(C(F)(F)F)ccc4c3Cl)C2)CC1` [Cpd 324, 1-(1-{[3-Chloro-6-(trifluoromethyl)-1-benzothiophen-2-yl]carbonyl}azetidin-3-yl)-4-(1,3-thiazol-2-ylcarbonyl)piperazine], the “Rat Brain 2AG % VehCntrl (%) @10 μM” value worked out at 1265%.
Same read-out and setting: under `O=C(c1cc2c(C(F)(F)F)cccc2s1)N1CC(N2CCN(C(=O)c3nccs3)CC2)C1` [Cpd 327, 1-(1,3-Thiazol-2-ylcarbonyl)-4-(1-{[4-(trifluoromethyl)-1-benzothiophen-2-yl]carbonyl}azetidin-3-yl)piperazine] stands 2005%; under `O=C(c1ccc(Oc2cccc(Cl)c2)c(F)c1)N1CC(N2CCN(C(=O)c3nccs3)CC2)C1` [Cpd 875], 1285%.
The same measure, in the same setting: under `O=C(c1ccc(-c2ccc(F)cc2)cc1)N1CC(N2CCN(C(=O)c3nccs3)CC2)C1` [Cpd 174, 1-{1-[(4′-Fluorobiphenyl-4-yl)carbonyl]azetidin-3-yl}-4-(1,3-thiazol-2-ylcarbonyl)piperazine] stands 1258%.
Take `N#Cc1cccc(-c2ccc(C(=O)N3CC(N4CCN(C(=O)c5nccs5)CC4)C3)cc2)c1` [Cpd 161, 4′-({3-[4-(1,3-Thiazol-2-ylcarbonyl)piperazin-1-yl]azetidin-1-yl}carbonyl)biphenyl-3-carbonitrile]: the “Rat Brain 2AG % VehCntrl (%) @10 μM” value is 1280%.
The same measure, in the same setting: under `O=C(c1ccc(SCc2cccc(Cl)c2Cl)cc1)N1CC(N2CCN(C(=O)c3nccs3)CC2)C1` [Cpd 413, 1-[1-({4-[(2,3-Dichlorobenzyl)sulfanyl]phenyl}carbonyl)azetidin-3-yl]-4-(1,3-thiazol-2-ylcarbonyl)piperazine] stands 1693%; under `CC1(C)CCC(C)(C)c2cc(CCC(=O)N3CC(N4CCN(C(=O)c5nccs5)CC4)C3)ccc21` [Cpd 282, 1-{1-[3-(5,5,8,8-Tetramethyl-5,6,7,8-tetrahydronaphthalen-2-yl)propanoyl]azetidin-3-yl}-4-(1,3-thiazol-2-ylcarbonyl)piperazine], 1775%; under `O=C(c1ccc(-c2ccc3c(c2)OCO3)cc1)N1CC(N2CCN(C(=O)c3nccs3)CC2)C1` [Cpd 181, 1-(1-{[4-(1,3-Benzodioxol-5-yl)phenyl]carbonyl}azetidin-3-yl)-4-(1,3-thiazol-2-ylcarbonyl)piperazine], 1236%.
On the same count and under the same terms, under `N#CC=Cc1cccc(-c2ccc(C(=O)N3CC(N4CCN(C(=O)c5nccs5)CC4)C3)cc2)c1` [Cpd 223, 3-[4′-({3-[4-(1,3-Thiazol-2-ylcarbonyl)piperazin-1-yl]azetidin-1-yl}carbonyl)biphenyl-3-yl]prop-2-enenitrile] stands 1261%; under `O=C(c1ccc(SCc2ccc(Cl)c(Cl)c2)cc1)N1CC(N2CCN(C(=O)c3nccs3)CC2)C1` [Cpd 414, 1-[1-({4-[(3,4-Dichlorobenzyl)sulfanyl]phenyl}carbonyl)azetidin-3-yl]-4-(1,3-thiazol-2-ylcarbonyl)piperazine], 1608%.
Same read-out and setting: under `Cc1cccc(-c2ccc(C(=O)N3CC(N4CCN(C(=O)c5nccs5)CC4)C3)cc2)c1` [Cpd 176, 1-{1-[(3′-Methylbiphenyl-4-yl)carbonyl]azetidin-3-yl}-4-(1,3-thiazol-2-ylcarbonyl)piperazine] stands 1124%.
